# Read-outs that look alike come from different tables or passages of the source.
# How the values were obtained:
# [1] = molecular target: T1, c-Met (cytoplasmic domain) (Homo sapiens, UniProt P08581); assay: c-Met Kinase Assay (same methods as for ALK, with modifications); format: biochemical
# T1 construct: 10 ng/mL c-Met (cytoplasmic domain, Invitrogen Corporation #PV3143); purchased Invitrogen Corporation PV3143
# Procedure, shortened: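 This plate-based kinase format uses immobilized phospholipase C-γ as substrate, phosphorylated by c-Met cytoplasmic domain (10 ng/mL) at 37° C for 15 minutes.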
# [2] = molecular target: T2, baculovirus-expressed ALK (Homo sapiens, UniProt Q9UM73); assay: ALK Kinase Assay (ELISA-type, time-resolved fluorescence); format: biochemical
# T2 construct: host or cells: baculovirus expression system
# T2 sequence (Q9UM73 19-1620): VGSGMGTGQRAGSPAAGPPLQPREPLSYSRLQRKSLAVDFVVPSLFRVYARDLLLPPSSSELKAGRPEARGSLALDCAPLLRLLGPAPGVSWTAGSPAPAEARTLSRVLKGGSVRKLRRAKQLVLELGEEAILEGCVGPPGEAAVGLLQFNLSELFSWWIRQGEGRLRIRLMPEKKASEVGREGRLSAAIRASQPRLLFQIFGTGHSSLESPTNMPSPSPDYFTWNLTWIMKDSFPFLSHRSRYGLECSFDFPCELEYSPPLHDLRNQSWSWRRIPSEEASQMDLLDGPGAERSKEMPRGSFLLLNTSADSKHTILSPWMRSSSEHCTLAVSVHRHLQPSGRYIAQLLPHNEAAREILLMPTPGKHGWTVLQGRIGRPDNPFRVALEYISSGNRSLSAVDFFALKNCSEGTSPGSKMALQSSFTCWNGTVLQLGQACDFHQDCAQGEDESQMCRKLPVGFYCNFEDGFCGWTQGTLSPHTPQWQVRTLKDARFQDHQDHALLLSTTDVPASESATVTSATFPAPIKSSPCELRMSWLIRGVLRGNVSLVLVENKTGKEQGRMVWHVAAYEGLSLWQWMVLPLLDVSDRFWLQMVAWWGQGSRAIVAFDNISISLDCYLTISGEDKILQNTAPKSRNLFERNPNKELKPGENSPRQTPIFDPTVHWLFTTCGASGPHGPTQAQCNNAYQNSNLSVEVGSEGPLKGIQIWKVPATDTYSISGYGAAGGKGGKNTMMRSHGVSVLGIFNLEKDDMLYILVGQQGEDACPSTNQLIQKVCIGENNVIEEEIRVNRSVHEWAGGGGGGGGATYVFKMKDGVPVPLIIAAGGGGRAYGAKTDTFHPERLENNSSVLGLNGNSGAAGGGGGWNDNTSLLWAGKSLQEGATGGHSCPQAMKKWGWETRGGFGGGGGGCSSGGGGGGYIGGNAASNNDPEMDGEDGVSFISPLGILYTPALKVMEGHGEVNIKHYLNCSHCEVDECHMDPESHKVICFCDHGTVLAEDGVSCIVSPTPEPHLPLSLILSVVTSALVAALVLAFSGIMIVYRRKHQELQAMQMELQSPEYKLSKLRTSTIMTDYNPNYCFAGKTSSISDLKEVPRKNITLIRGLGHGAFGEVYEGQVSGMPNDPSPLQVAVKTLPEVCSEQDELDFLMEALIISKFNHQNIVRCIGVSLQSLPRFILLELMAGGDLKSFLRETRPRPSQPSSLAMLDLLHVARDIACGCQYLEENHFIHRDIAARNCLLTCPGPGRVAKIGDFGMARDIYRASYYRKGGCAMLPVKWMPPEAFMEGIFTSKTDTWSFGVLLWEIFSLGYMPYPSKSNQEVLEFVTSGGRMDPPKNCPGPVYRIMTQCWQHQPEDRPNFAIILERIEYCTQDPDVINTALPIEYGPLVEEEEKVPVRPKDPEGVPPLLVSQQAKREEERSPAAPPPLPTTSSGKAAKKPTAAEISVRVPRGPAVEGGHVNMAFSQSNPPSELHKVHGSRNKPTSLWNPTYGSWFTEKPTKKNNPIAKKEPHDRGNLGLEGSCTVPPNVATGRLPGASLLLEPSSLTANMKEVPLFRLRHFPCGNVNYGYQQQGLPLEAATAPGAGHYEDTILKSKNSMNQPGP
# Procedure, shortened: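 Substrate coating: phospholipase C-γ, 10 μg/mL in TBS. Kinase step: 30 ng/ml ALK, 15 min, 37° C. Detection and analysis: Eu-N1 PT66 antibody, with IC50 fitted as a sigmoidal variable-slope dose-response curve.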
# [3] = 1 μM ATP (Km level), 10 ng/mL c-Met, read-out: cMet Activity (c-Met kinase inhibition, IC50 class)
# [4] = 1 μM ATP (Km level), 30 ng/ml ALK, 37° C., 15 minutes, read-out: ALK Activity (ALK kinase inhibition, IC50 class)
# [5] = c-Met kinase inhibition, 1 μM ATP (Km level), read-out: cMet Activity
# [6] = ALK kinase inhibition, 1 μM ATP (Km level), read-out: ALK Activity
# [7] = c-Met kinase inhibition, 1 μM ATP, read-out: cMet Activity
# [8] = ALK kinase inhibition, 1 μM ATP, read-out: ALK Activity
# [9] = 1 μM ATP (Km level), read-out: cMet Activity (c-Met Kinase Inhibition, IC50)
# [10] = 1 μM ATP (Km level), read-out: ALK Activity (ALK Kinase Inhibition, IC50)
# T1 sequence (P08581 956-1390 limits assumed): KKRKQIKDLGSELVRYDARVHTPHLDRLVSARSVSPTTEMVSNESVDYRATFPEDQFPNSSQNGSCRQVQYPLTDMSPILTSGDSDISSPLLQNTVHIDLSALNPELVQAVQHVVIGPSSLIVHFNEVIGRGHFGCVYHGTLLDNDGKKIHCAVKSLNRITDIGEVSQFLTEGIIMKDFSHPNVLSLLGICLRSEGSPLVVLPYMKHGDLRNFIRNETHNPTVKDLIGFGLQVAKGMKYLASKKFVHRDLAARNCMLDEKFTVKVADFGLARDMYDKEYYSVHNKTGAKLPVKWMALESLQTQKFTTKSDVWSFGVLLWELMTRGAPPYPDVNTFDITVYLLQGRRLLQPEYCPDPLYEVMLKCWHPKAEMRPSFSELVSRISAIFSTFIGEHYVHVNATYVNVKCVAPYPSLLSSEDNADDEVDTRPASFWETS
smiles,measurement,setting,value
"CC1(C)CCC(=O)Nc2cc(Nc3ncc(Cl)c(Nc4ccccc4OCCC#N)n3)ccc21 [Example 1238, 3-{2-[5-Chloro-2-(5,5-dimethyl-2-oxo-2,3,4,5-tetrahydro-1H-1-benzazepin-8-ylamino)-pyrimidin-4-ylamino]-phenoxy}-propionitrile]",IC50,[1]; [3],< 100 nM
same,IC50,[2]; [4],< 100 nM
"CNC(=O)c1ccccc1Nc1nc(Nc2ccc3c(c2)COC[C@@H]2CCCN32)ncc1Cl [Example 12, 2-{5-Chloro-2-[(S)-(2,3,3a,4-tetrahydro-1H,6H-5-oxa-10b-aza-benzo[e]azulen-8-yl)amino]-pyrimidin-4-ylamino}-N-methyl-benzamide]",IC50,[1]; [5],< 100 nM
same,IC50,[2]; [6],< 100 nM
"CNC(=O)c1ccccc1Nc1nc(Nc2ccc3c(c2OC)CCCC(=O)N3C)ncc1Cl [Example 116, 2-[5-Chloro-2-(6-methoxy-1-methyl-2-oxo-2,3,4,5-tetrahydro-1H-benzo[b]azepin-7-ylamino)-pyrimidin-4-ylamino]-N-methyl-benzamide]",IC50,[1]; [5],1000 to 10000 nM
same,IC50,[2]; [6],< 100 nM
"COCCN1C(=O)CCCc2c1ccc(Nc1ncc(Cl)c(N[C@@H]3[C@H](C(N)=O)[C@H]4C=C[C@@H]3C4)n1)c2OC [Example 128, (2-exo,3-exo)-3-{5-Chloro-2-[6-methoxy-1-(2-methoxy-ethyl)-2-oxo-2,3,4,5-tetrahydro-1H-benzo[b]azepin-7-ylamino]-pyrimidin-4-ylamino}-bicyclo[2.2.1]hept-5-ene-2-carboxylic acid amide]",IC50,[1]; [5],> 10000 nM
same,IC50,[2]; [6],< 100 nM
"CNC(=O)c1cnn(C)c1Nc1nc(Nc2ccc3c(c2)CC(=O)N(C)CC3)ncc1Cl [Example 1821, 5-[5-Chloro-2-(3-methyl-4-oxo-2,3,4,5-tetrahydro-1H-benzo[d]azepin-7-ylamino)-pyrimidin-4-ylamino]-1-methyl-1H-pyrazole-4-carboxylic acid methylamide]",IC50,[1]; [7],100 to 1000 nM
same,IC50,[2]; [8],100 to 1000 nM
"COc1cc2c(cc1Nc1ncc(Cl)c(Nc3ccccc3S(=O)(=O)N3CC[C@H](O)C3)n1)CCN(C[C@@H](C)O)CC2 [Example 1556, (S)-1-(2-{5-Chloro-2-[3-((R)-2-hydroxy-propyl)-8-methoxy-2,3,4,5-tetrahydro-1H-3-benzazepin-7-ylamino]-pyrimidin-4-ylamino}-benzenesulfonyl)-pyrrolidin-3-ol]",IC50,[1]; [7],1000 to 10000 nM
same,IC50,[2]; [8],< 100 nM
"CCN1C(=O)C(N)CCc2c1ccc(Nc1ncc(Cl)c(Nc3ccc(N(C)C)cc3OC)n1)c2OC (stereo not shown) [Example 1343, 3-Amino-7-[5-chloro-4-(4-dimethylamino-2-methoxy-phenylamino)-pyrimidin-2-ylamino]-1-ethyl-6-methoxy-1,3,4,5-tetrahydro-benzo[b]azepin-2-one]",IC50,[1]; [3],> 10000 nM
same,IC50,[2]; [4],< 100 nM
"C#CCNC(=O)c1cccc(F)c1Nc1nc(Nc2ccc3c(c2)N(C(C)=O)CCCC3)ncc1Cl [Example 1490, 2-[2-(1-Acetyl-2,3,4,5-tetrahydro-1H-benzo[b]azepin-8-ylamino)-5-chloro-pyrimidin-4-ylamino]-3-fluoro-N-prop-2-ynyl-benzamide]",IC50,[1]; [7],< 100 nM
same,IC50,[2]; [8],100 to 1000 nM
"COc1cc(N2CCOCC2)ccc1Nc1nc(Nc2ccc3c(c2)N(CC(C)C)C(=O)CCC3(C)C)ncc1Cl [Example 1594, 8-[5-Chloro-4-(2-methoxy-4-morpholin-4-yl-phenylamino)-pyrimidin-2-ylamino]-1-isobutyl-5,5-dimethyl-1,3,4,5-tetrahydro-benzo[b]azepin-2-one]",IC50,[1]; [7],> 10000 nM
same,IC50,[2]; [8],< 100 nM
"CC1(C)CCC(=O)Nc2ccc(Nc3ncc(Cl)c(Nc4cccc(-c5cccnc5)c4)n3)cc21 [Example 993, 7-[5-Chloro-4-(3-pyridin-3-yl-phenylamino)-pyrimidin-2-ylamino]-5,5-dimethyl-1,3,4,5-tetrahydro-benzo[b]azepin-2-one]",IC50,[1]; [9],1000 to 10000 nM
same,IC50,[2]; [10],100 to 1000 nM
"COc1cc2c(cc1Nc1ncc(Cl)c(Nc3ccc(Cl)cc3S(=O)(=O)N(C)C)n1)CCN(CC(=O)N1CCOCC1)CC2 [Example 841, 5-Chloro-2-{5-chloro-2-[8-methoxy-3-(2-morpholin-4-yl-2-oxo-ethyl)-2,3,4,5-tetrahydro-1H-benzo[d]azepin-7-ylamino]-pyrimidin-4-ylamino}-N,N-dimethyl-benzenesulfonamide]",IC50,[1]; [9],> 10000 nM
same,IC50,[2]; [10],< 100 nM
"CNC(=O)c1ccc(Cl)c(Cl)c1Nc1nc(Nc2ccc3c(c2)CCOC(=O)N3C)ncc1Cl [Example 1757, 3,4-Dichloro-2-[5-chloro-2-(5-methyl-6-oxo-5,6,8,9-tetrahydro-7-oxa-5-aza-benzocyclohepten-2-ylamino)-pyrimidin-4-ylamino]-N-methyl-benzamide]",IC50,[1]; [7],< 100 nM
same,IC50,[2]; [8],100 to 1000 nM
"CCN1C(=O)C(NC(=O)C(F)(F)F)CC(C)(C)c2ccc(Nc3ncc(Cl)c(Nc4c(F)cccc4C(=O)NC)n3)cc21 (stereo not shown) [Example 1642, 2-{5-Chloro-2-[1-ethyl-5,5-dimethyl-2-oxo-3-(2,2,2-trifluoro-acetylamino)-2,3,4,5-tetrahydro-1H-benzo[b]azepin-8-ylamino]-pyrimidin-4-ylamino}-3-fluoro-N-methyl-benzamide]",IC50,[1]; [7],< 100 nM
same,IC50,[2]; [8],100 to 1000 nM
"COCCN1CCSc2ccc(Nc3ncc(Cl)c(N[C@@H]4CCCC[C@H]4NS(C)(=O)=O)n3)cc2C1 [Example 521, N-((1R,2R)-2-{5-Chloro-2-[8-(2-methoxy-ethyl)-6,7,8,9-tetrahydro-5-thia-8-aza-benzocyclohepten-2-ylamino]pyrimidin-4-ylamino}-cyclohexyl)-methanesulfonamide]",IC50,[1]; [9],1000 to 10000 nM
same,IC50,[2]; [10],< 100 nM
"COc1c(Nc2ncc(Cl)c(N[C@H]3[C@@H](C(N)=O)[C@@H]4C=C[C@H]3C4)n2)ccc2c1CCCC(=O)N2 (relative stereo) [Example 139, (2-exo,3-exo)-3-[5-Chloro-2-(6-methoxy-2-oxo-2,3,4,5-tetrahydro-1H-benzo[b]azepin-7-ylamino)-pyrimidin-4-ylamino]-bicyclo[2.2.1]hept-5-ene-2-carboxylic acid amide]",IC50,[1]; [5],> 10000 nM
same,IC50,[2]; [6],< 100 nM
"CNC(=O)c1ccccc1Nc1nc(Nc2ccc3c(c2)NC(=O)CNC3)ncc1Cl [Example 1858, 2-[5-Chloro-2-(2-oxo-2,3,4,5-tetrahydro-1H-benzo[e][1,4]diazepin-8-ylamino)-pyrimidin-4-ylamino]-N-methyl-benzamide]",IC50,[1]; [7],< 100 nM
same,IC50,[2]; [8],100 to 1000 nM
"CCN1C(=O)[C@H](NC(=O)COC)CCc2c1ccc(Nc1ncc(Cl)c(N[C@H]3[C@@H](C(N)=O)[C@@H]4C=C[C@H]3C4)n1)c2OC (single isomer, unassigned) [Example 1350]",IC50,[1]; [3],> 10000 nM
same,IC50,[2]; [4],< 100 nM
"COc1ccc(Nc2nc(Nc3cc4c(cc3OC)CCN(CC(=O)N(C)C)CC4)ncc2Cl)c(-n2cccn2)c1 [Example 616, 2-{7-[5-Chloro-4-(4-methoxy-2-pyrazol-1-yl-phenylamino)-pyrimidin-2-ylamino]-8-methoxy-1,2,4,5-tetrahydro-benzo[d]azepin-3-yl}-N,N-dimethyl-acetamide]",IC50,[1]; [9],> 10000 nM
same,IC50,[2]; [10],< 100 nM
"CNC(=O)c1cccc(F)c1Nc1nc(Nc2ccc3c(c2)CCCC(=O)N3CCOC)ncc1Cl [Example 356, 2-{5-Chloro-2-[1-(2-methoxy-ethyl)-2-oxo-2,3,4,5-tetrahydro-1H-benzo[b]azepin-7-ylamino]-pyrimidin-4-ylamino}-3-fluoro-N-methyl-benzamide]",IC50,[1]; [5],< 100 nM
same,IC50,[2]; [6],< 100 nM
"COCCN1C(=O)CCC(C)(C)c2ccc(Nc3ncc(Cl)c(Nc4ccc(N5CCOCC5)cc4OC)n3)cc21 [Example 1584, 8-[5-Chloro-4-(2-methoxy-4-morpholin-4-yl-phenylamino)-pyrimidin-2-ylamino]-1-(2-methoxy-ethyl)-5,5-dimethyl-1,3,4,5-tetrahydro-benzo[b]azepin-2-one]",IC50,[1]; [7],1000 to 10000 nM
same,IC50,[2]; [8],< 100 nM
"COc1cc2c(cc1Nc1ncc(Cl)c(Nc3ccccc3S(=O)(=O)N(C)C)n1)CCC(NCC(F)F)CC2 (stereo not shown) [Example 1055, 2-{5-Chloro-2-[7-(2,2-difluoro-ethylamino)-3-methoxy-6,7,8,9-tetrahydro-5H-benzocyclohepten-2-ylamino]-pyrimidin-4-ylamino}-N,N-dimethyl-benzenesulfonamide]",IC50,[1]; [3],> 10000 nM
same,IC50,[2]; [4],< 100 nM
"CN1CCNCc2cc(Nc3ncc(Cl)c(N[C@@H]4CCCC[C@H]4NS(C)(=O)=O)n3)ccc21 [Example 422, N-{(1R,2R)-2-[5-Chloro-2-(1-methyl-2,3,4,5-tetrahydro-1H-benzo[e][1,4]diazepin-7-ylamino)-pyrimidin-4-ylamino]-cyclohexyl}-methanesulfonamide]",IC50,[1]; [5],1000 to 10000 nM
same,IC50,[2]; [6],< 100 nM
"COc1ccc(Nc2nc(Nc3ccc4c(c3)CCC(N3CCOCC3)CC4)ncc2Cl)c2c1CN(C)C2=O (stereo not shown) [Example 939, 7-[5-Chloro-2-(7-morpholin-4-yl-6,7,8,9-tetrahydro-5H-benzocyclohepten-2-ylamino)-pyrimidin-4-ylamino]-4-methoxy-2-methyl-2,3-dihydro-isoindol-1-one]",IC50,[1]; [9],1000 to 10000 nM
same,IC50,[2]; [10],< 100 nM

# Reference: patent US8148391B2 (Cephalon, Inc., priority 2006, dated 2012)
